Assay results as given in patent US20120231482A1, “METHOD, KIT OR DIAGNOSTIC FOR THE DETECTION OF REAGENTS WHICH INDUCE ALTERED CONTRACTILITY” (THE JOHNS HOPKINS UNIVERSITY, priority 2009, published 2012).
Marks after values point to notes of the source that are not given here.

How the values were obtained:
[1] = molecular target: T1, tropomyosin (α) (Rattus norvegicus, UniProt P04692); assay: Modified biotin switch assay, sites of HNO modification; assay type: biochemical
T1 construct: Rat myofibrillar preparations, as described in [7], were obtained from frozen ventricles (Pel Freez Biologicals); tissue Pel Freez Biologicals; host or cells: myofibrils from frozen rat ventricles
Description: (§1) Rat myofibrillar preparations, as described in [7], were obtained from frozen ventricles (Pel Freez Biologicals) minced in 20 volumes/tissue weight of 4° C. relax buffer (SRB (75 mM KCL, 10 mM imidazole pH 7.2, 2 mM MgCl2) plus 4 mM phosphocreatine, 1 mM ATP, 50 mM BDM, 1 mM benzamidine-HCL, 0.1 mM PMSF, 1 μg/ml leupeptin, 1 μg/ml pepstatin, 1% (v/v) Trixon X-100) and adjusted to 10 mM EDTA. Minced preparations were centrifuged for 8 min at 3000xg and the supernant was decanted. Resulting pellets were resuspended in 10 volumes of SRB plus 1% Triton X-100 and subjected to 6 strokes in a Duall tissue homogenizer and centrifuged as above. Pellets were gently resuspended and centrifuged as above twice more in SRB including 1% (v/v) Triton X-100, twice in SRB lacking Triton X-100 and once in K-60 buffer (60 mM KCL, 20 mM MOPS, 2 mM MgCl2 pH 7) before being resuspended in 5 volumes of K-60.
(§2) Detection of HNO modifications by Modified Biotin Switch. HNO modified thiols were detected using a modification to the standard biotin switch protocol. In brief, 100 μg of rat myofibrils/treatment were diluted to 0.5 μg/μl in HEN (250 mM HEPES pH 7.7, 1 mM EDTA and 0.1 mM neocuproine) including 0.1% (w/v) SDS and exposed to a treatment for 10 min at 37° C. which was subsequently removed by acetone precipitation. Remaining free thiols were blocked by addition of 300 μl of HEN including 2.5% (w/v) SDS and 20 mM N-ethylmaleimide (NEM), incubated for 20 min at 50° C. Excess NEM was removed by acetone precipitation. HNO and/or NO modified thiols were reduced using 5 mM DTT or 1 mM ascorbate in 150 μl of HEN including 1% (w/v) SDS and biotinylated with 0.8 mM Biotin-HPDP (Pierce) for one hour at room temperature. Excess biotin-HPDP was removed by acetone precipitation (2 volumes) and resultant pellets were carefully washed with an additional volume of acetone. Biotinylated proteins were resuspended in 1 ml of HEN including 0.1% (w/v) SDS and captured by incubation with 15 μl of washed, packed Ultralink Immobilized Streptavidin (Pierce) for one hour at room temperature. Beads were washed four times in 50 bead volumes of HEN (twice including 0.1% (w/v) SDS, twice including 600 mM NaCl) and twice with EB (20 mM HEPES pH 7.7, 100 mM NaCl, 1 mM EDTA). Captured proteins were eluted with 40 μl of EB containing 100 mM DTT, mixed with 15 μl of 4×LDS sample buffer, boiled, separated by SDS PAGE and silver stained. For MS studies, biotinylated proteins were digested overnight with trypsin (Promega) prior to capture and washed ten additional times with 5 mM ammonium bicarbonate/20% acetonitrile before being eluted in 100 μl of wash buffer including 100 mM DTT as described. Captured peptides were identified using a LTQ linear ion trap tandem mass spectrometer (ThermoFinnigan, Waltham Mass. USA) with data searched against the rat IPI primary sequence database using the sorcerer searching platform (sagen).
(§3) To investigate the modifications that underlie the difference seen in the functional effect of these two compounds we performed an analysis on the myofilament proteins, using a modified biotin-switch method, followed by mass spectrometry for identification (FIG. 3). Following treatment with HNO or control compounds, unmodified cysteines are blocked with NEM before treatment with a reducing agent and labeling the exposed cysteines with a biotin group (FIG. 3A). In this case, 5 mM DTT was used as the reducing agent because it was shown in the physiological studies to reverse the effect of the treatment. […] Tryptic or chymotryptic peptides containing the modified cysteine residues were captured and identified by LC/MS/MS. […] To parse the role of candidate sites of modification between these two effects a comparative proteomics experiment was designed where modifications specific to NCA treatment would be considered candidates for the Ca^2+ effect while sites identified in common between AS and NCA could be candidates for the force effect (FIG. 3C). […]

[2] = molecular target: T2, myosin heavy chain β (Rattus norvegicus, UniProt P02564); assay: as above; assay type: biochemical
T2 construct: Rat myofibrillar preparations, as described in [7], were obtained from frozen ventricles (Pel Freez Biologicals); tissue Pel Freez Biologicals; host or cells: myofibrils from frozen rat ventricles
Description: as §1, §2, §3

[3] = system: rat cardiac muscle; assay: Force and [Ca2+]i measurements in cardiac trabeculae; assay type: cell-based
Description: Force and [Ca^2+]i Measurements in Cardiac Trabeculae.
Rat hearts were exposed via midsternotomy after the animals were anesthetized with intraperitoneal injection of pentobarbital (100 mg/kg), and were then rapidly excised and aorta cannulated. The hearts were perfused retrogradely (˜15 ml/min) with high K^+ Krebs-Henseleit (H-K) solution equilibrated with 95% O2 and 5% CO2. Trabeculae were quickly dissected from the right ventricles of the hearts and mounted between a force transducer and a motor arm. The muscles were superfused with K-H solution at a rate of ˜10 ml/min and stimulated at 0.5 Hz. Force was measured using a force transducer system (SI, Germany) and expressed in mN/mm^2. Sarcomere length was measured by laser diffraction. Fura-2 potassium salt was microinjected iontophoretically into one cell and allowed to spread throughout the whole muscle (via gap junctions). The epifluorescence of fura-2 was measured by exciting at 380 and 340 nm. The fluorescent light was collected at 510 nm by a photomultiplier tube (R1527, Hamamatsu). [Ca^2+]i was given by (after subtraction of the autofluorescence): [Ca^2+]i=K′d(R-Rmin)/(Rmax-R), where R is the observed ratio of fluorescence (340/380), K′d is the apparent dissociation constant, Rmax is the ratio of 340 nm/380 nm at saturating [Ca^2+], and Rmin is the ratio of 340 nm/380 nm at zero [Ca^2+]. The values of K′d, Rmax, and Rmin were determined by in vivo calibrations. Tetanization of the trabecula was achieved by addition of ryanodine (1.0 μmol/L) and by increasing the stimulus rate to 10 Hz briefly (˜3 sec) to obtain steady-state force-[Ca^2+] relations. Different levels of tetanized force will be obtained by increasing [Ca^2+] in the perfusate (up to 20-25 mmol/L). The data will be fitted with the Hill equation: F=Fmax[Ca^2+]in/(K1/2n+[Ca^2+]in), where Fmax is the maximal force. K1/2 is [Ca^2+]i at half Fmax, and n is the Hill coefficient.
1-nitrosocyclohexylacetate (NCA) is a new and mechanistically unique HNO donor that has been recently synthesized.

[4] = 20˜100 μmol/L, 0.5 mmol/L [Ca2+]o
[5] = NCA 100 μmol/L, isolated cardiac muscle
[6] = in the presence of NCA, varied external Ca2+

T2 sequence (P02564 whole entry): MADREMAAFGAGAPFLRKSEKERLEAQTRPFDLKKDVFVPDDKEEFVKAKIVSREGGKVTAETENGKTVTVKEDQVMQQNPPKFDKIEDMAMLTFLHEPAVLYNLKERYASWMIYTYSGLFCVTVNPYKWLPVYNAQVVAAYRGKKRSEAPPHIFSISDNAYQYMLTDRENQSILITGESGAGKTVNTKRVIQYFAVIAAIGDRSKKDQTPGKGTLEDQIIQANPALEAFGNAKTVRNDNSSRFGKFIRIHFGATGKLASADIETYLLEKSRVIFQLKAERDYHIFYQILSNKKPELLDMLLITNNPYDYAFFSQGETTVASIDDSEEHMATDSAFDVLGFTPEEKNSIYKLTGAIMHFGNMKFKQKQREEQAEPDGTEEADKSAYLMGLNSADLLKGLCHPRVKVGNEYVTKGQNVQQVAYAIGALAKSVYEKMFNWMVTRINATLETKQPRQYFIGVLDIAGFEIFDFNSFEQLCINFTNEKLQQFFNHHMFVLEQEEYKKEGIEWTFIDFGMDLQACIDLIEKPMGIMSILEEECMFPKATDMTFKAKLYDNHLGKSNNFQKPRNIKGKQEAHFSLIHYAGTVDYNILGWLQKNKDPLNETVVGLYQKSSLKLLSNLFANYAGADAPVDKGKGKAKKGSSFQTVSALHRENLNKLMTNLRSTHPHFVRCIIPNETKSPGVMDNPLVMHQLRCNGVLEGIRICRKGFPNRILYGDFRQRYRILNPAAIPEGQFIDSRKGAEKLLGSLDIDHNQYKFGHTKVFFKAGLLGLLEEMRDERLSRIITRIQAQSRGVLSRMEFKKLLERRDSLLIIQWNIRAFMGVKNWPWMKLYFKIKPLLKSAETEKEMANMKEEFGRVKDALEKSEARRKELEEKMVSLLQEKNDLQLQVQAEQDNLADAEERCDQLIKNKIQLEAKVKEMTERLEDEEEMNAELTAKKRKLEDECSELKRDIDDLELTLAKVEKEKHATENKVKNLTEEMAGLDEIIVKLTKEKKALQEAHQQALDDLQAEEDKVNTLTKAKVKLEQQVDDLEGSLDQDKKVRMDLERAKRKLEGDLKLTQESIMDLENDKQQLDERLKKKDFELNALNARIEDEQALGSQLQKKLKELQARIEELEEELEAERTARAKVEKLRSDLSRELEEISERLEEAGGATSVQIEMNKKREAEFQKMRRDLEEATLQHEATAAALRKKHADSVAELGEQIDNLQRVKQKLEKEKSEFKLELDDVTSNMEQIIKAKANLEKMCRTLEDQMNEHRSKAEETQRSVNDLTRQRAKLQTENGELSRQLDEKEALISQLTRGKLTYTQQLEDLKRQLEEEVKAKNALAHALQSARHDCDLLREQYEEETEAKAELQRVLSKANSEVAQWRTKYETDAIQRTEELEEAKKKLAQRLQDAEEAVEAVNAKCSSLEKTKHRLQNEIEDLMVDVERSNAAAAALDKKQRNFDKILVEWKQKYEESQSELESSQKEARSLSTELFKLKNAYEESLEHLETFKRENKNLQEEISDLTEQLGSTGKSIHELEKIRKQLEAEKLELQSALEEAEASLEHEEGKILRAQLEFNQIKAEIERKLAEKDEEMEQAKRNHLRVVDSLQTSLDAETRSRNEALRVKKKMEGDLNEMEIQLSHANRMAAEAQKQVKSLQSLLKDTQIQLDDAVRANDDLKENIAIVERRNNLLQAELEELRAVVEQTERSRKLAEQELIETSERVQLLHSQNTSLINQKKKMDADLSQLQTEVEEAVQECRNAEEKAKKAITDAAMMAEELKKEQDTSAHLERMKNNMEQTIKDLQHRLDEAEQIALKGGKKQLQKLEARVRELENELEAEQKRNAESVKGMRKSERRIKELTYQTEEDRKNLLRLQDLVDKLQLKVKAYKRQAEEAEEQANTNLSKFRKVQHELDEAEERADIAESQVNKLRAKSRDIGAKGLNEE
T1 sequence (P04692 whole entry): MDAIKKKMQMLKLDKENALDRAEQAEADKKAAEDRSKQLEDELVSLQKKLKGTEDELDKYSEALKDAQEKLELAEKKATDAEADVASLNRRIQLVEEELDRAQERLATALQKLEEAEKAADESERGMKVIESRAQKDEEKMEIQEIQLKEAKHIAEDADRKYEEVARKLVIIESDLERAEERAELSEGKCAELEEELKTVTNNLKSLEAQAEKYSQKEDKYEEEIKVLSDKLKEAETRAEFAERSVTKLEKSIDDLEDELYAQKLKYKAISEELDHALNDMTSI

CC(=O)OC1(N=O)CCCCC1 [NCA, 1-nitrosocyclohexylacetate]
number of independent observations of peptide ([1]; Cys 190, tryptic peptide CLELEEELKTVTNNLK, 25 μM NCA or 500 μM AS): 3^a | Position of modified Cys ([1]; α-tropomyosin, Table 2): 190 | number of independent observations of peptide ([2]; Cys 947, tryptic peptide KLEDECELKR, 25 μM NCA or 500 μM AS): 3 | Position of modified Cys ([2]; myosin heavy chain (β), Table 2): 947(β)* | diastolic force [3, 4]: no changes | force development [3, 4]: increases force development in a dose dependent manner | Ca2+ transient [3, 5]: 0.39 ± 0.08 µmol/L | force [3, 5]: 32.3 ± 4.8 mN/mm² | diastolic Ca2+ ([3]; dose-response): increased only at high doses | amplitude of intracellular Ca2+ transients [3, 6]: not different from control | systolic force at any given external Ca2+ [3, 6]: remained significantly higher | Force-frequency relationship ([3]; without rising [Ca2+]i): enhanced
